Consider 2 molecules from patent EP4427758A1, “NEW SYNERGISTIC ANTI-INFLAMMATORY, ANTIOXIDANT AND ANTIBACTERIAL ASSOCIATION” (NOOS S.r.l., priority 2023, dated 2024).

In brackets after ≈: the same amount, converted by molar mass.

In series [1] the test system is Staphylococcus aureus NCTC 6571. Description: MIC determination by plate microdilution. The class given is cell-based. The following applies: NCTC6571, S. aureus, 24 hours at 37°C. Here is the method:
(§1) The supernatant from Streptococcus salivarius K12 was used as reference. To this purpose, the Minimum Inhibitory Concentration (MIC) was evaluated. The pathogen microorganisms were the following ones: Staphylococcus aureus NCTC 6571, Streptococcus pyogenes LMG 21599, Streptococcus pneumoniae DSM 20566, Moraxella chatarralis DSM 9143, Haemophilus influenzae DSM 4690.
(§2) L. reuteri LMG P-27481 and S. salivarius K12 were subcultivated on agar plates from cryopreserved cultures. All pathogens, except for H. influenzae DSM 4690, were cultivated on agar BHI (Brain Heart Infusion, Oxoid). The subculture of H. influenzae DSM 4690 requested the presence of traces of lysed red blood cells in the medium.
(§3) In short, the supernatants were obtained for centrifugation of liquid cultures of L. reuteri LMG P27481 and S. salivarius K12, sterilized by filtration. The aliquots were diluted in series for determining the vital count. The supernatants were diluted in series from 100% to 0.19% (v:v).
(§4) The pathogen strains were dosed optically by using the spectrophotometer at OD600 between 0.08-0.100 and diluted 100 times in Schaedler broth or sterile supernatants (to obtain the concentration of 100%).
(§5) All samples were incubated for 24 hours at 37°C under aerobic conditions for all strains except for H. influenzae DSM 4690 which required anaerobiosis conditions.
(§6) Moreover, a control with serial dilutions of DMSO was performed in order to exclude that the presence of this diluent could exert an inhibitory effect on the pathogens.

For series [2], the system named is Moraxella chatarralis DSM 9143. Description: MIC determination by plate microdilution. The class given is cell-based. The conditions noted are these: DSM9143, M. chatarralis, 24 hours at 37°C. Here is the method:
as §1, §2, §3, §4, §5, §6

In series [3] the test system is Streptococcus pneumoniae DSM 20566. Description: MIC determination by plate microdilution. The class given is cell-based. The following applies: DSM20566, S. pneumoniae, 24 hours at 37°C. The procedure: as §1, §2, §3, §4, §5, §6
Series [4] concerns Haemophilus influenzae DSM 4690. As to the kind of experiment: MIC determination by plate microdilution. The class given is cell-based. The conditions noted are these: DSM4690, H. influenzae, 24 hours at 37°C, anaerobiosis. Here is the method:
as §1, §2, §3, §4, §5, §6

Series [5] deals with Streptococcus pyogenes LMG 21599. As to the kind of experiment: MIC determination by plate microdilution. The class given is cell-based. The conditions noted are these: LMG21599, S. pyogenes, 24 hours at 37°C. The procedure: as §1, §2, §3, §4, §5, §6
The test system of another series is all tested pathogens. Description: MIC determination, summary over all tested pathogens. The class given is cell-based. The conditions noted are these: range over all tested pathogens. The procedure:
as §1, §2, §3, §4
All samples were incubated for 24 hours at 37°C under aerobic conditions for all strains except for H. influenzae DSM 4690 which required anaerobiosis conditions. […]

The subject of a further series is L. reuteri LMG P-27481. As to the kind of experiment: Tolerance test: vitality of L. reuteri LMG P-27481 in presence of resveratrol in simulated saliva. The class given is cell-based, Lactobacillus (Limosilactobacillus) reuteri. Here is the method: The simulated saliva (SS) was prepared with 8 g/l of sodium chloride, 0.19 g/l monobasic potassium phosphate, 2.38 g/l sodium phosphate (pH 6.8) and then sterilized (Alanzi et al., 2018). The cryopreserve stock of L. reuteri LMG P-27481 strain was controlled in order to verify the purity thereof and then cultivated on MRS Broth (De Man Rogosa Sharpe, Difco) under microaerophilic conditions at 37°C for 18 hours. The cultures in MRS broth of L. reuteri LMG P-27481 grown under microaerophilic conditions at 37°C for 18 hours were centrifuged, the supernatant discarded an the pellets were washed with sterile demineralized water. […] A test tube with only SS was used as positive control of survival. L. reuteri LMG P-27481 was analysed according to the standard of Mc Farland in order to obtain a vital load of 3×10^8 CFU/ml in the test tubes. […] Aliquots were collected after 5, 10, 30 and 60 minutes for determining vitality. All plates were incubated for 72 hours at 37°C under anaerobic conditions.

A further series deals with IL-37. As to the kind of experiment: Gene expression by real-time PCR in 3D model of in vitro reconstituted skin (EpiDermFT). The class given is cell-based. The following applies: vs control, after 24 hours. The text has this:
(§7) Evaluation of the gene expression of some cytokines (IL-25, IL-33, IL-37) and of filaggrin (FLG), involucrin (IVL) and loricrin (LOR) in a complex 3D model of in vitro reconstituted skin (EpiDermFT - MATTEK).
(§8) The 3D models of in vitro reconstituted skin constitute optimum systems capable of simulating well the functionalities of a complex organ such as skin and the interactions which are established between numerous cell populations composing it. Then, they try to free from the excessive simplification represented by one single cell line put in culture. The cytokines IL-25 and IL-33 are pro-inflammatory cytokines over-produced by the keratinocytes and by the surface layers of the skin after an insult; on the contrary the cytokine IL-37 is an anti-inflammatory cytokine. At last, the proteins filaggrin (FLG), involucrin (IVL) and loricrin (LOR), are proteins produced by epidermis, fundamental in the constitution of the barrier which protects from external agents and respond to cytokine signals. In particular, during an inflammatory event, the expression of these genes is sub-regulated; on the contrary, an anti-inflammatory state tends to over-express the genes FLG, IVL, LOR.
(§9) The extraction of total RNA was performed by QlAzol Lysis Reagent by following the instructions provided by the firm (Qiagen). The retro-transcription reactions were performed on 4 µg of total RNA by following the instructions provided by the protocol of the kit PROMEGA "GoTaq 2 Step RT qPCR System". The amplification for determining the gene expression, by real-time PCR technique, was performed on BioRad CFX96 machine and the related quantification was performed by the method of 2^-ΔΔCt.

In the next series the test system is filaggrin (FLG). Described as above. The class given is cell-based. The following applies: vs control.
From the text: as §7, §8, §9

The subject of a further series is involucrin (IVL). The description is as above. The class given is cell-based. The conditions noted are these: vs control.
From the text: as §7, §8, §9

A further series concerns loricrin (LOR). The series is described as above. The class given is cell-based. The following applies: vs control.
From the text: as §7, §8, §9

A further series has as its system HaCat. cells. The class given is cell-based. The text has this:
MTT test is a colorimetric assay which exploits the capability of cells to convert, at mitochondrial level, the bromide of 3-(4,5-dimethylthiazol-2-il)-2,5-diphenyltetrazolium in the related salt, by evaluating the cell viability. The produced salt is solubilized in organic solvent in order to obtain a homogeneous solution in the single well, measurable spectrophotometrically. Besides, the crystal violet assay is based upon the capability of the homonymous […] dye to bind to DNA of the cells in culture and to return in this way a reliable estimation of the number of cells. […] Before colouring, washings in PBS were carried out. 50 µL of dye (MTT (5 mg/mL in PBS); Crystal violet (2,5 mg/mL in MeOH 20%)) were then added to each well and left in incubation at 37°C for 2 hours (MTT) or stirred on tilting plate for 20 min (Crystal violet). The exceeding dye was washed and the dye was solubilized in organic solvent (DMSO) in order to obtain a homogenous solution in the single well, measurable spectrophotometrically. The measurement of absorbance of the single wells was performed in a plate reader, at the wavelength of 570 nm, by normalizing the values with respect to the control.

Series [6] can be described thus: NBT assay of antioxidant activity (superoxide scavenging). The class given is biochemical. The following applies: NBT Test (O2^-•); read-out: Scavenging activity of the free radicals IC50.
Protocol: For the inactivation of bacteria by heat, one started at a concentration of 4×10^9 CFU/mL. The bacteria were then centrifuged at 4000 rpm for 10 minutes, the supernatant discarded and replaced with 1 ml of 0.9% NaCl saline solution. The heat inactivation occurred at the temperature of 85°C for 15 minutes.
NBT assay (nitrobluetetrazolium) evaluates the capability of locking the formation of the superoxide radical ^·O2^-; the more ^·O2^- is produced, the more NBT is reduced in formazan. The capability of molecules and compounds to inhibit the NBT reduction by ^·O2^- in presence of β-nicotinammide adenin dinucleotide (β-NADH) and phenazinamethosulfate (PM) is then tested.
The spectrophometric reading was performed by kinetics, by measuring the OD values (λmax 560 nm) immediately and after 15 sec. The absorbance variation was used to calculate the inhibition percentage with respect to the control (solution of EtOH and of the solvent in which the different samples are dissolved).
To this purpose, on previously heat inactivated mixtures of bacteria, 8 serial dilutions were performed according to the scheme reported in figure 1; 20 µL of each dilution were then used in all assays of antioxidant activity according to the protocol indications.

For the molecule `Oc1ccc(/C=C/c2cc(O)cc(O)c2)cc1` [Resveratrol, 3,5,4'-trihydroxy-trans-stilbene], the MIC is 160 µg/mL (≈ 701 µM) in series [1]; 160 µg/mL (≈ 701 µM) in series [2]; 80 µg/mL (≈ 350 µM) in series [3]; 80 µg/mL (≈ 350 µM) in [4]; 160 µg/mL (≈ 701 µM) in [5]. Moreover, the inhibiting concentrations in the series on all tested pathogens lay in the range of 80 to 160 µg/mL. Also, the “%S (% of survival of microorganisms)” value in the series with L. reuteri LMG P-27481 (SS + 0.5 mg/ml Resveratrol, T5) is 99.9%; in the series on L. reuteri LMG P-27481 (SS + 0.5 mg/ml Resveratrol, T10), 99.6%; with L. reuteri LMG P-27481 (SS + 0.5 mg/ml Resveratrol, T30), 99.3%; in the series on L. reuteri LMG P-27481 (SS + 0.5 mg/ml Resveratrol, T60), 99.2%; in the series on L. reuteri LMG P-27481 (SS + 1 mg/ml Resveratrol, T5), 99.8%; with L. reuteri LMG P-27481 (SS + 1 mg/ml Resveratrol, T10) it was 99.6%. The “%S (% of survival of microorganisms)” value in the series on L. reuteri LMG P-27481 (SS + 1 mg/ml Resveratrol, T30) was 99.6%; in the series on L. reuteri LMG P-27481 (SS + 1 mg/ml Resveratrol, T60) it was 99.4%; in the series with L. reuteri LMG P-27481 (SS + 2.5 mg/ml Resveratrol, T5), 99.9%; with L. reuteri LMG P-27481 (SS + 2.5 mg/ml Resveratrol, T10), 99.6%; in the series with L. reuteri LMG P-27481 (SS + 2.5 mg/ml Resveratrol, T30) it was 99.5%; in the series on L. reuteri LMG P-27481 (SS + 2.5 mg/ml Resveratrol, T60), 99.2%. Further, the “%S (% of survival of microorganisms)” value was 99.7% in the series on L. reuteri LMG P-27481 (SS + 5 mg/ml Resveratrol, T5 (5 minutes contact), 3×10^8 CFU/ml); 99.5% in the series on L. reuteri LMG P-27481 (SS + 5 mg/ml Resveratrol, T10); 99.3% in the series on L. reuteri LMG P-27481 (SS + 5 mg/ml Resveratrol, T30); 99.0% in the series with L. reuteri LMG P-27481 (SS + 5 mg/ml Resveratrol, T60); “higher than 99%” in the series on L. reuteri LMG P-27481 (SS + 5 mg/ml Resveratrol, T60, listed as resveratrol). Also, the “expression of IL-37” value with IL-37 is listed as “under-expression”. Further, the “expression of FLG” value in the series on filaggrin (FLG) was “minimum expression variations”. Also, in the series with involucrin (IVL), the “expression of IVL” value is on record as “minimum expression variations”. The “expression of LOR” value in the series with loricrin (LOR) is listed as “minimum expression variations”. Further, the “cell count (crystal violet)” value in the series with HaCat. cells was “decrease in vitality and cell count”. Further, in the series on HaCat. cells, the “cell viability (MTT)” value was “decrease in vitality”.
Regarding `O=C1O[C@H]([C@@H](O)CO)C(O)=C1O` [Ascorbic Acid], the IC50 in [6] amounted to 665 ± 26 µM.
